Data from patent publication US12077503B2, “Substituted cyclic amides and their use as herbicides” (FMC CORPORATION, priority 2015, dated 2024).

Columns and labels:
Type in all cases: in vivo
[1] = system: blackgrass (Alopecurus myosuroides); test: Test A postemergence; conditions: postemergence; for Blackgrass plant response rating: 125 g ai/ha, visual injury rating on 0 to 100 scale (0 no effect, 100 complete control), approx. 10 d; for Plant response rating, Blackgrass: 500 g ai/ha, 0 to 100 scale, 0 no effect, 100 complete control
In short: (§1)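 Greenhouse, ~10 d after spray; visual injury vs untreated controls, 0 = no effect, 100 = complete control. Preemergence: directed soil spray over planted seeds. Postemergence: plants 2–10 cm, 1–2 leaf stage. Loam/sand blend. Compound in non-phytotoxic solvent with surfactant.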

[2] = system: giant foxtail (Setaria faberii); test: Test A postemergence; conditions: postemergence; for Foxtail, Giant plant response rating: 125 g ai/ha, visual injury rating on 0 to 100 scale (0 no effect, 100 complete control), approx. 10 d; for Plant response rating, Foxtail, Giant: 500 g ai/ha, 0 to 100 scale, 0 no effect, 100 complete control
In short: as §1

[3] = system: ryegrass, Italian (Italian ryegrass, Lolium multiflorum); test: Test A postemergence; conditions: postemergence; for Ryegrass, Italian plant response rating: 125 g ai/ha, visual injury rating on 0 to 100 scale (0 no effect, 100 complete control), approx. 10 d; for Plant response rating, Ryegrass, Italian: 500 g ai/ha, 0 to 100 scale, 0 no effect, 100 complete control
In short: as §1

[4] = system: pigweed (Amaranthus retroflexus); test: Test A postemergence; conditions: postemergence; for Pigweed plant response rating: 125 g ai/ha, visual injury rating on 0 to 100 scale (0 no effect, 100 complete control), approx. 10 d; for Plant response rating, Pigweed: 500 g ai/ha, 0 to 100 scale, 0 no effect, 100 complete control
In short: as §1

corn (Zea mays) = test: Test A postemergence; conditions: postemergence; for Corn plant response rating: 125 g ai/ha, visual injury rating on 0 to 100 scale (0 no effect, 100 complete control), approx. 10 d; for Plant response rating, Corn: 500 g ai/ha, 0 to 100 scale, 0 no effect, 100 complete control
In short: as §1

Kochia (Kochia scoparia) [5] = test: Test A postemergence; conditions: postemergence; for Kochia plant response rating: 125 g ai/ha, visual injury rating on 0 to 100 scale (0 no effect, 100 complete control), approx. 10 d; for Plant response rating, Kochia: 500 g ai/ha, 0 to 100 scale, 0 no effect, 100 complete control
In short: as §1

[6] = system: wheat (Triticum aestivum); test: Test A postemergence; conditions: postemergence; for Wheat plant response rating: 125 g ai/ha, visual injury rating on 0 to 100 scale (0 no effect, 100 complete control), approx. 10 d; for Plant response rating, Wheat: 500 g ai/ha, 0 to 100 scale, 0 no effect, 100 complete control
In short: as §1

[7] = system: barnyardgrass (Echinochloa crus-galli); test: Test A postemergence; conditions: postemergence; for Barnyardgrass plant response rating: 125 g ai/ha, visual injury rating on 0 to 100 scale (0 no effect, 100 complete control), approx. 10 d; for Plant response rating, Barnyardgrass: 500 g ai/ha, 0 to 100 scale, 0 no effect, 100 complete control
In short: as §1

[8] = system: Galium (catchweed bedstraw, Galium aparine); test: Test A postemergence; conditions: postemergence; for Galium plant response rating: 125 g ai/ha, visual injury rating on 0 to 100 scale (0 no effect, 100 complete control), approx. 10 d; for Plant response rating, Galium: 500 g ai/ha, 0 to 100 scale, 0 no effect, 100 complete control
In short: as §1

[9] = system: ragweed (common ragweed, Ambrosia elatior); test: Test A postemergence; conditions: postemergence; for Ragweed plant response rating: 125 g ai/ha, visual injury rating on 0 to 100 scale (0 no effect, 100 complete control), approx. 10 d; for Plant response rating, Ragweed: 500 g ai/ha, 0 to 100 scale, 0 no effect, 100 complete control
In short: as §1

[10] = system: giant foxtail (Setaria faberii); test: Test A preemergence; conditions: for Plant response rating, Foxtail, Giant: 125 g ai/ha, preemergence, 0 to 100 scale (0 no effect, 100 complete control); for Foxtail, Giant plant response rating (0 to 100 scale, 0 is no effect, 100 is complete control): Preemergence, 500 g ai/ha, visual injury approx. 10 d
In short: as §1

[11] = system: ryegrass, Italian (Italian ryegrass, Lolium multiflorum); test: Test A preemergence; conditions: for Plant response rating, Ryegrass, Italian: 125 g ai/ha, preemergence, 0 to 100 scale (0 no effect, 100 complete control); for Ryegrass, Italian plant response rating (0 to 100 scale, 0 is no effect, 100 is complete control): Preemergence, 500 g ai/ha, visual injury approx. 10 d
In short: as §1

[12] = system: pigweed (Amaranthus retroflexus); test: Test A preemergence; conditions: for Plant response rating, Pigweed: 125 g ai/ha, preemergence, 0 to 100 scale (0 no effect, 100 complete control); for Pigweed plant response rating (0 to 100 scale, 0 is no effect, 100 is complete control): Preemergence, 500 g ai/ha, visual injury approx. 10 d
Kochia (Kochia scoparia) [13] = test: Test A preemergence; conditions: for Plant response rating, Kochia: 125 g ai/ha, preemergence, 0 to 100 scale (0 no effect, 100 complete control); for Kochia plant response rating (0 to 100 scale, 0 is no effect, 100 is complete control): Preemergence, 500 g ai/ha, visual injury approx. 10 d
In short: as §1

[14] = system: barnyardgrass (Echinochloa crus-galli); test: Test A preemergence; conditions: for Plant response rating, Barnyardgrass: 125 g ai/ha, preemergence, 0 to 100 scale (0 no effect, 100 complete control); for Barnyardgrass plant response rating (0 to 100 scale, 0 is no effect, 100 is complete control): Preemergence, 500 g ai/ha, visual injury approx. 10 d
In short: as §1

[15] = system: ragweed (common ragweed, Ambrosia elatior); test: Test A preemergence; conditions: for Plant response rating, Ragweed: 125 g ai/ha, preemergence, 0 to 100 scale (0 no effect, 100 complete control); for Ragweed plant response rating (0 to 100 scale, 0 is no effect, 100 is complete control): Preemergence, 500 g ai/ha, visual injury approx. 10 d
In short: as §1

rice (Oryra sativa) = test: Test B flooded paddy test; conditions: Flood, 250 g ai/ha; 0 to 100 scale where 0 is no effect and 100 is complete control; 13 to 15 d
In short: (§2)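 Plants at 2-leaf stage flooded to 3 cm above soil, with compounds applied directly to paddy water and that depth maintained. Plants kept in greenhouse 13–15 d. Visual rating versus controls on a 0 (no effect) to 100 (complete control) scale.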

[16] = system: ducksalad (Heteranthera limosa); test: Test B flooded paddy test; conditions: Flood, 250 g ai/ha; 0 to 100 scale where 0 is no effect and 100 is complete control; 13 to 15 d
In short: as §2

[17] = system: sedge, umbrella (small-flower umbrella sedge, Cyperus difformis); test: Test B flooded paddy test; conditions: Flood, 250 g ai/ha; 0 to 100 scale where 0 is no effect and 100 is complete control; 13 to 15 d
In short: as §2

[18] = system: barnyardgrass (Echinochloa crus-galli); test: Test B flooded paddy test; conditions: Flood, 250 g ai/ha; 0 to 100 scale where 0 is no effect and 100 is complete control; 13 to 15 d
In short: as §2

Row | Compound | Blackgrass plant response rating [1] | Plant response rating, Blackgrass [1] | Foxtail, Giant plant response rating [2] | Plant response rating, Foxtail, Giant [2] | Ryegrass, Italian plant response rating [3] | Plant response rating, Ryegrass, Italian [3] | Pigweed plant response rating [4] | Plant response rating, Pigweed [4] | Corn plant response rating (corn (Zea mays)) | Plant response rating, Corn (corn (Zea mays)) | Kochia plant response rating (Kochia (Kochia scoparia) [5]) | Plant response rating, Kochia (Kochia (Kochia scoparia) [5]) | Wheat plant response rating [6] | Plant response rating, Wheat [6] | Barnyardgrass plant response rating [7] | Plant response rating, Barnyardgrass [7] | Galium plant response rating [8] | Plant response rating, Galium [8] | Ragweed plant response rating [9] | Plant response rating, Ragweed [9] | other results
1 | CN1CC(c2ccc3c(c2)OC(F)(F)O3)C(C(=O)Nc2ccccc2S(C)(=O)=O)C1=O (stereo not drawn) [Compound 443] | 60 | 70 | 80 | 80 | 30 | 60 | 20 | 50 | 40 | 80 | 20 | 30 | 40 | 60 | 80 | 80 | 40 | 50 | 20 | 20 | Plant response rating, Foxtail, Giant [10]: 90; Foxtail, Giant plant response rating (0 to 100 scale, 0 is no effect, 100 is complete control) [10]: 90; Plant response rating, Ryegrass, Italian [11]: 40; Ryegrass, Italian plant response rating (0 to 100 scale, 0 is no effect, 100 is complete control) [11]: 50; Plant response rating, Pigweed [12]: 80; Pigweed plant response rating (0 to 100 scale, 0 is no effect, 100 is complete control) [12]: 90; Plant response rating, Kochia (Kochia (Kochia scoparia) [13]): 30; Kochia plant response rating (0 to 100 scale, 0 is no effect, 100 is complete control) (Kochia (Kochia scoparia) [13]): 80; Plant response rating, Barnyardgrass [14]: 90; Barnyardgrass plant response rating (0 to 100 scale, 0 is no effect, 100 is complete control) [14]: 90; Plant response rating, Ragweed [15]: 80; Ragweed plant response rating (0 to 100 scale, 0 is no effect, 100 is complete control) [15]: 80; Plant response rating, Rice (rice (Oryra sativa)): 0; Plant response rating, Ducksalad [16]: 80; Plant response rating, Sedge, Umbrella [17]: 0; Plant response rating, Barnyardgrass [18]: 70
2 | O=C1NCC(c2ccc(Br)cc2)C1C(=O)Nc1ccccc1F (stereo not drawn) [Compound 448] | 0 | 30 | 60 | 80 | 0 | 20 | 20 | 40 | 0 | 0 | 30 | 50 | 0 | 0 | 80 | 90 | 30 | 50 | 0 | 0 | Plant response rating, Foxtail, Giant [10]: 90; Foxtail, Giant plant response rating (0 to 100 scale, 0 is no effect, 100 is complete control) [10]: 90; Plant response rating, Ryegrass, Italian [11]: 0; Ryegrass, Italian plant response rating (0 to 100 scale, 0 is no effect, 100 is complete control) [11]: 20; Plant response rating, Pigweed [12]: 20; Pigweed plant response rating (0 to 100 scale, 0 is no effect, 100 is complete control) [12]: 40; Plant response rating, Kochia (Kochia (Kochia scoparia) [13]): 20; Kochia plant response rating (0 to 100 scale, 0 is no effect, 100 is complete control) (Kochia (Kochia scoparia) [13]): 50; Plant response rating, Barnyardgrass [14]: 90; Barnyardgrass plant response rating (0 to 100 scale, 0 is no effect, 100 is complete control) [14]: 90; Plant response rating, Ragweed [15]: 0; Ragweed plant response rating (0 to 100 scale, 0 is no effect, 100 is complete control) [15]: 20; Plant response rating, Rice (rice (Oryra sativa)): 0; Plant response rating, Ducksalad [16]: 95; Plant response rating, Sedge, Umbrella [17]: 0; Plant response rating, Barnyardgrass [18]: 40
